The target in this assay is SARS-CoV-2 3CLpro (Severe acute respiratory syndrome coronavirus 2, UniProt P0DTD1). Kind of assay: biochemical. To be noted: for inhibition at 5 µM: 4 h; for mean (LOPAC screen with protease) / Replicate_1 (LOPAC screen with protease) / Replicate_2 (LOPAC screen with protease): primary screen at 5 µM. In kind it is biochemical. Also noted: Replicate_1 / Replicate_2 / mean / mean (LOPAC_screen_w_protease): unit not given here.

Setting [1] is: sheet LOPAC_screen_w_protease, primary screen with protease, 5 µM, mean of two replicates.
Where [2] appears, read: sheet LOPAC_screen_w_protease, primary screen with protease, 5 µM, replicate 1.
Setting [3] is: sheet LOPAC_screen_w_protease, primary screen with protease, 5 µM, replicate 2.
The mark [4] stands for this setting: LOPAC1280 primary screen with protease, 5 µM compound, mean of two replicates.
Setting [5] is: LOPAC1280 primary screen with protease, 5 µM compound, replicate 1.
Setting [6] is: LOPAC1280 primary screen with protease, 5 µM compound, replicate 2.
Setting [7] is: sheet LOPAC_screen_w_protease, primary screen with protease, compound at 5 µM, mean of two replicates.
Where [8] appears, read: sheet LOPAC_screen_w_protease, primary screen with protease, compound at 5 µM, replicate 1.
Setting [9] is: sheet LOPAC_screen_w_protease, primary screen with protease, compound at 5 µM, replicate 2.
Setting [10] is: sheet LOPAC_screen_w_protease, LOPAC1280 primary screen at 5 µM, with protease, mean of the two replicates.
The mark [11] stands for this setting: sheet LOPAC_screen_w_protease, LOPAC1280 primary screen at 5 µM, with protease, replicate 1.
The mark [12] stands for this setting: sheet LOPAC_screen_w_protease, LOPAC1280 primary screen at 5 µM, with protease, replicate 2.
Setting [13] is: LOPAC1280 primary screen with protease, 5 µM compound, mean of the two replicates.
Setting [14] is: sheet LOPAC_screen_w_protease, mean of two replicates.
[15] abbreviates: sheet LOPAC_screen_w_protease, replicate 1.
Where [16] appears, read: sheet LOPAC_screen_w_protease, replicate 2.
Setting [17] is: sheet LOPAC_screen_w_protease, primary screen with protease, mean of two replicates.
Where [18] appears, read: sheet LOPAC_screen_w_protease, primary screen with protease, replicate 1.
[19] abbreviates: sheet LOPAC_screen_w_protease, primary screen with protease, replicate 2.
[20] abbreviates: sheet LOPAC_screen_w_protease, primary screen of LOPAC1280 at 5 µM with protease, mean of the two replicates.
Where [21] appears, read: sheet LOPAC_screen_w_protease, primary screen of LOPAC1280 at 5 µM with protease, replicate 1.
[22] abbreviates: sheet LOPAC_screen_w_protease, primary screen of LOPAC1280 at 5 µM with protease, replicate 2.

Structures can show the parent of a compound that is named as a salt. Where two headings read alike, the source gives them in different places.

For `Cn1c(=O)c2[nH]c(C3CCCC3)nc2n(C)c1=O` [8-Cyclopentyl-1,3-dimethylxanthine], the mean under setting [1] came to 0.2262. Moreover, the Replicate_1 under setting [2] stood at 2.489. Besides, the Replicate_2 under setting [3] is -2.037.
In the case of `CCCn1c(=O)c2[nH]c(C3CCCC3)nc2n(CCC)c1=O` [8-Cyclopentyl-1,3-dipropylxanthine], the “mean (LOPAC_screen_w_protease)” value under setting [4] was determined as 1.568. The “Replicate_1 (LOPAC_screen_w_protease)” value under setting [5] is 3.936. For the same compound, the “Replicate_2 (LOPAC_screen_w_protease)” value under setting [6] was -0.7999.
As to `Nc1ncnc2c1ncn2C1CCCC1` [9-cyclopentyladenine], the mean under setting [7] was determined as 2.587. Also, under setting [8], the Replicate_1 is on record as 2.53. Moreover, under setting [9], the Replicate_2 was 2.643.
On to `CC(N)=NCc1cccc(CN)c1.Cl.Cl` [1400W dihydrochloride], for which, under setting [10], the mean was determined as 0.5066. Moreover, the Replicate_1 under setting [11] came out at 0.5348. Under setting [12], the Replicate_2 is 0.4785.
Consider `CC(C)C[C@H]1C(=O)N2CCC[C@H]2[C@]2(O)O[C@](NC(=O)[C@@H]3C=C4c5cccc6[nH]c(Br)c(c56)C[C@H]4N(C)C3)(C(C)C)C(=O)N12.CS(=O)(=O)O` [(+)-Bromocriptine methanesulfonate], for which, under setting [13], the “mean (LOPAC_screen_w_protease)” value stood at 1.984. Further, under setting [5], the “Replicate_1 (LOPAC_screen_w_protease)” value came out at 2.405. The “Replicate_2 (LOPAC_screen_w_protease)” value under setting [6] is 1.562.
In the case of `CN(C)CC[C@@H](c1ccc(Br)cc1)c1ccccn1` [(+)-Brompheniramine maleate], the inhibition at 5 µM was determined as 1.03% (sheet LOPAC_screen_w_protease, LOPAC1280 at 5 µM, mean of two replicates, read-out: mean); 0.743% (sheet LOPAC_screen_w_protease, LOPAC1280 at 5 µM, replicate 1, read-out: Replicate_1); 1.32% (sheet LOPAC_screen_w_protease, LOPAC1280 at 5 µM, replicate 2, read-out: Replicate_2).
For `CN1CCCC1c1cccnc1.Cc1ccc(C(=O)OC(C(=O)O)C(OC(=O)c2ccc(C)cc2)C(=O)O)cc1` (stereo not drawn) [(+)-Nicotine (+)-di-p-toluoyl tartrate], the “Replicate_1 (LOPAC_screen_w_protease)” value is recorded as 1.288, the “Replicate_2 (LOPAC_screen_w_protease)” value worked out at 2.109 and the “mean (LOPAC_screen_w_protease)” value stood at 1.698.
With `CC[C@@H]1C(=O)OC[C@@H]1Cc1cncn1C.Cl` [(+)-Pilocarpine hydrochloride], the mean under setting [10] amounted to 0.6668. The compound also came in with a Replicate_1 under setting [11] of 2.011. The compound also yielded a Replicate_2 under setting [12] of -0.6778.
Under setting [10], `N[C@@H](Cn1oc(=O)[nH]c1=O)C(=O)O` [(+)-Quisqualic acid] had a mean of 0.4364. This compound also had a Replicate_1 under setting [11] of 1.4914. For the same compound, the Replicate_2 under setting [12] is recorded as -0.6187.
On to `C[C@@H]1OC[C@H](C[N+](C)(C)C)O1.[I-]` [(+)-cis-Dioxolane iodide], for which the “mean (LOPAC screen with protease)” value under setting [14] is 7.2322. Under setting [15], the “Replicate_1 (LOPAC screen with protease)” value is 5.683. Also, the “Replicate_2 (LOPAC screen with protease)” value under setting [16] is recorded as 8.781.
Regarding `C[N+]1(C)CCc2cc3c(cc2[C@H]1[C@@H]1OC(=O)c2c1ccc1c2OCO1)OCO3.[Br-]` [(-)-Bicuculline methbromide, 1(S), 9(R)], under setting [17], the mean is given as 2.342. This compound registered a Replicate_1 under setting [18] of 1.484. The compound also had a Replicate_2 under setting [19] of 3.2.
Taken in the same sequence, the figures for `CN1C(=O)CC[C@H]1c1cccnc1` [(-)-Cotinine] were 2.4459, 2.442 and 2.45.
For `CNC[C@H](O)c1ccc(O)c(O)c1` [(-)-Epinephrine bitartrate], the inhibition at 5 µM is, setting by setting: (read-out: Replicate_1) 5.37%; (read-out: Replicate_2) 0.847%; (read-out: mean) 3.11%.
Take `CN1CC[C@@]2(C)c3cc(O)ccc3N(C)[C@@H]12.O=C(O)/C=C/C(=O)O` [(-)-Eseroline fumarate]: the “mean (LOPAC screen with protease)” value under setting [14] stood at 88.3904. Besides, the “Replicate_1 (LOPAC screen with protease)” value under setting [15] is 89.8661. The “Replicate_2 (LOPAC screen with protease)” value under setting [16] worked out at 86.9147.
As to `C[C@@]12N[C@@H](Cc3ccccc31)c1ccccc12.O=C(O)/C=C\C(=O)O` [(-)-MK-801 hydrogen maleate], under setting [14], the “mean (LOPAC screen with protease)” value was determined as 6.636. Besides, the “Replicate_1 (LOPAC screen with protease)” value under setting [15] came to 5.967. Further, the “Replicate_2 (LOPAC screen with protease)” value under setting [16] was 7.306.
With `COc1ccc2cc([C@H](C)C(=O)[O-])ccc2c1.[Na+]` [(-)-Naproxen sodium], the Replicate_2 was -1.573 and the mean is given as 0.4756.
Consider `C=C(C)[C@H]1CC=C(C(=O)O)CC1` [(-)-Perillic acid], for which the mean under setting [1] was -0.8057. The Replicate_1 under setting [2] is 1.127. In addition, the Replicate_2 under setting [3] was -2.738.
Regarding `CNC(=O)Oc1ccc2c(c1)[C@]1(C)CCN(C)[C@@H]1N2C` [(-)-Physostigmine], the inhibition at 5 µM (sheet LOPAC_screen_w_protease, primary screen of LOPAC1280 at 5 µM with protease, mean of the two replicates, read-out: mean) stood at 3.4%; the inhibition at 5 µM (sheet LOPAC_screen_w_protease, primary screen of LOPAC1280 at 5 µM with protease, replicate 1, read-out: Replicate_1) was determined as 5.4%; the inhibition at 5 µM (sheet LOPAC_screen_w_protease, primary screen of LOPAC1280 at 5 µM with protease, replicate 2, read-out: Replicate_2) amounted to 1.4%.
Turning to `C[N+]1(C)[C@@H]2C[C@@H](OC(=O)[C@H](CO)c3ccccc3)C[C@H]1[C@@H]1O[C@@H]12` [(-)-Scopolamine methyl bromide], the inhibition at 5 µM was -1.17% (sheet LOPAC_screen_w_protease, LOPAC1280 primary screen at 5 µM, with protease, mean of two replicates, read-out: mean); 0.833% (sheet LOPAC_screen_w_protease, LOPAC1280 primary screen at 5 µM, with protease, replicate 1, read-out: Replicate_1); -3.16% (sheet LOPAC_screen_w_protease, LOPAC1280 primary screen at 5 µM, with protease, replicate 2, read-out: Replicate_2).
For `CCN1CCC[C@H]1CNC(=O)c1cc(S(N)(=O)=O)ccc1OC` [(-)-Sulpiride], the inhibition at 5 µM (LOPAC1280 primary screen with protease, 5 µM compound, replicate 1, read-out: Replicate_1 (LOPAC_screen_w_protease)) was determined as 0.997%. Besides, under setting [4], the “mean (LOPAC_screen_w_protease)” value is on record as 1.652.
For `Cl.c1ccc([C@H]2CN3CCSC3=N2)cc1` [(-)-Tetramisole hydrochloride], the Replicate_1 is listed as 0.0709, the Replicate_2 came out at 1.236 and the mean stood at 0.6536.
Take `CN(Cc1cnc2nc(N)nc(N)c2n1)c1ccc(C(=O)N[C@@H](CCC(=O)O)C(=O)O)cc1` [(-)Amethopterin]: under setting [13], the “mean (LOPAC_screen_w_protease)” value stood at 2.014. In addition, under setting [5], the “Replicate_1 (LOPAC_screen_w_protease)” value turned out to be 2.356. Further, the “Replicate_2 (LOPAC_screen_w_protease)” value under setting [6] was 1.671.
Take `NC/C=C/C(=O)O` [(E)-4-amino-2-butenoic acid]: the “mean (LOPAC_screen_w_protease)” value under setting [4] came to 1.558. For the same compound, the “Replicate_1 (LOPAC_screen_w_protease)” value under setting [5] is 1.878. For the same compound, the “Replicate_2 (LOPAC_screen_w_protease)” value under setting [6] is listed as 1.238.
Under setting [20], `O=c1[nH]c(=O)n([C@H]2C[C@H](O)[C@@H](CO)O2)cc1/C=C/Br` [(E)-5-(2-Bromovinyl)-2'-deoxyuridine] gave a mean of 3.159. This compound had a Replicate_1 under setting [21] of 2.158. In addition, the Replicate_2 under setting [22] is recorded as 4.161.
Compound `CS(=O)(=O)O.Cc1c(C(=O)c2cccc3ccccc23)c2cccc3c2n1[C@H](CN1CCOCC1)CO3` [(R)-(+)-WIN 55,212-2 mesylate] returned a mean under setting [1] of -0.1611. Under setting [2], this compound had a Replicate_1 of -0.3938. This compound also had a Replicate_2 under setting [3] of 0.07161.
For the compound `N[C@H](C(=O)O)c1cc(O)cc(O)c1` [(S)-3,5-Dihydroxyphenylglycine], the mean under setting [20] came out at 3.456. Besides, the Replicate_1 under setting [21] is on record as 2.928. The compound also came in with a Replicate_2 under setting [22] of 3.983.
For `CC[C@@]1(O)C(=O)OCc2c1cc1n(c2=O)Cc2cc3ccccc3nc2-1` [(S)-(+)-Camptothecin], the mean under setting [20] stood at 3.282. For the same compound, the Replicate_1 under setting [21] amounted to 4.077. The compound also gave a Replicate_2 under setting [22] of 2.488.
Take `OC[C@H]1O[C@@H](n2cnc3c(N[C@H]4CC5CCC4C5)ncnc32)[C@H](O)[C@@H]1O` (stereo partly drawn) [(S)-ENBA]: the mean under setting [7] is 2.65. This compound also gave a Replicate_1 under setting [8] of 4.26. The same compound had a Replicate_2 under setting [9] of 1.041.
`C[C@](N)(CCP(=O)(O)O)C(=O)O.Cl` [(S)-MAP4 hydrochloride] gave a mean under setting [20] of 4.027. In addition, the Replicate_1 under setting [21] is recorded as 4.444. The compound further displayed a Replicate_2 under setting [22] of 3.611.

The values are drawn from publication PMC7587356, “High-Throughput Screening for Inhibitors of the SARS-CoV-2 Protease Using a FRET-Biosensor” (Molecules, 2020).
